From patent US9248162B2, “Factor H for treatment of rheumatoid arthritis” (Baxter International Inc., priority 2013, dated 2016)
Values joined by “and” are separate entries in the source; they are usually repeats but may differ in a detail not shown here. Equal entries are not always repeated. Marks after values point to notes of the source that are not given here.

Experiments:
Assay type in all cases: in vivo, Balb C mice
[1] = system: collagen antibody-induced arthritis; assay: Mouse CAIA: ankle histology scores (H & E); design: key: 0: normal; 1: minimal infiltration of pannus in cartilage and subchondral bone; 2: mild infiltration; 3: moderate infiltration; 4: marked infiltration; 5: severe infiltration; details: individual animal, score 0-5, endpoint day 22, listed as Group 3
Description: (§1) Balb C mice (n=10 per cohort) were used to determine the efficacy of Factor H (FH) during […]. The mice were treated with ArthritoMAb (anti-collagen) antibody cocktail (2 mg, i.v.) on day 1, followed 7 days later with an injection of LPS (50 μg, i.p.). On day 8, hind paw volumes were measured for each animal and distributed to various treatment groups.
(§2) Dosing with the different agents was started on day 8 as described in Table 3.
(§3) Hind paw volumes were measured on day 8, 11, 12, 13, 15, 19 and 22 (endpoint). The age at start date was 7 to 9 weeks. Body weights were measured bi-weekly to the endpoint (Table 4). At the endpoint, tissue samples were processed for histology and submitted to a pathologist for independent analysis. Sampling 1 was performed at the endpoint. The hind limbs were preserved in 10% formalin. Sampling 2 was performed at the endpoint for group 4 animals. Blood was collected by terminal cardiac puncture. The blood was processed for anti-coagulant. The kidneys were additionally preserved in formalin and followed with 70% EtOH. Samples were scored for inflammation, pannus (granulation tissue), cartilage damage, bone resorption and exostosis (Table 5).

[2] = Mouse CAIA: body weight and tolerability; details: mouse, in vivo
Description: as §1, §2, §3

[3] = system: collagen antibody-induced arthritis; assay: Mouse CAIA: hind paw / footpad volume (swelling, disease burden); design: Mean Disease Burden / Total Disease Burden (AUC) / Hind Limb Volume, Mean Diff. / Total Disease, Mean Diff.: unit not given here; details: for % Disease Suppression / Total Disease Burden (AUC): days 8-22
Description: as §1
(§4) Factor H was formulated in 20 mM Citrate, 150 mM NaCl, pH=6. […] Ethanercept was formulated as Enbrel™ in saline. Vehicle was formulated in 20 mM Citrate, 150 mM NaCl, pH=6. […] The dosing volume for Factor H and BX12 was 25 mL/kg (0.500 mL/20 g mouse) and adjusted accordingly for body weight.
as §2
as §3, with “The” for “Hind paw volumes were measured on day 8, 11, 12, 13, 15, 19 and 22 (endpoint). The”

[4] = system: collagen antibody-induced arthritis; assay: Mouse CAIA: ankle histology scores (H & E); design: key: 0: normal; 1: minimal infiltration of inflammatory cells in periarticular tissue; 2: mild infiltration; 3: moderate infiltration with moderate edema; 4: marked infiltration with marked edema; 5: severe infiltration with severe edema; details: individual animal, score 0-5, endpoint day 22, listed as Group 3
Description: as §1, §2, §3

[5] = system: collagen antibody-induced arthritis; assay: Mouse CAIA: ankle histology scores (H & E); design: key: 0: normal; 1: minimal to mild loss of staining density with no obvious chondrocyte loss or collagen disruption; 2: mild loss of staining density with focal mild (superficial) chondrocyte loss and/or collagen disruption; 3: moderate loss of staining density with multifocal moderate (depth to middle zone) chondrocyte loss and/or collagen disruption; 4: marked loss of staining density with multifocal marked (depth to deep zone) chondrocyte loss and/or collagen disruption; 5: severe diffuse loss of staining density with multifocal severe (depth to tide mark) chondrocyte loss and/or collagen disruption; details: individual animal, score 0-5, endpoint day 22, listed as Group 3
Description: as §1, §2, §3

[6] = system: collagen antibody-induced arthritis; assay: Mouse CAIA: ankle histology scores (H & E); design: key: 0: normal; 1: minimal; 2: mild; 3: moderate; 4: marked; 5: severe; details: individual animal, score 0-5, endpoint day 22, listed as Group 3
Description: as §1, §2, §3

[7] = system: collagen antibody-induced arthritis; assay: Mouse CAIA: clinical score; design: key to Clinical Score, Summary (significance): ns: = not significant; *: = P < 0.05; **: = P < 0.01; ***: = P < 0.001
Description: The mice were treated with ArthritoMAb (anti-collagen) antibody cocktail (2 mg, i.v.) on day 1, followed 7 days later with an injection of LPS (50 μg, i.p.). On day 8, hind paw volumes were measured for each animal and distributed to various treatment groups.
as §4, §2

[8] = Vehicle vs agent, Dunnett's Multiple Comparison Test
[9] = Vehicle vs agent, Dunn's Multiple Comparison Test

**Q.** Which “Score From H & E: Pannus” value [1] does the source give for Etanercept here?
**A.** The value was 4.

**Q.** And the “Mean Body Weigh at Nadir” value [2]?
**A.** Its value is −5.7%.

**Q.** What about the “Hind Limb Volume, Mean Diff.” value [3, 8] of the same substance?
**A.** The value was 0.08143.

**Q.** And the “Hind Limb Volume, Summary (significance)” value [3, 8]?
**A.** The value was “** (= P < 0.01)”.

**Q.** And the “Total Disease, Mean Diff.” value [3, 8]?
**A.** Its value is 1.19.

**Q.** And the “Total Disease, Summary (significance)” value [3, 8]?
**A.** Its value is “** (= P < 0.01)”.

**Q.** And the Hind paw volume ([3]; day 8 of study, group mean, n 10)?
**A.** The Hind paw volume was 0.35 mL.

**Q.** And the Hind paw volume ([3]; day 8 of study, individual animal)?
**A.** The Hind paw volume was 0.41 mL and 0.4 mL and 0.38 mL and 0.37 mL and 0.35 mL and 0.34 mL and 0.32 mL and 0.31 mL and 0.3 mL (2×).

**Q.** What about the Hind paw volume ([3]; day 11 of study, group mean, n 10) of the same substance?
**A.** The Hind paw volume was 0.44 mL.

**Q.** And the Hind paw volume ([3]; day 11 of study, individual animal)?
**A.** The Hind paw volume was 0.49 mL and 0.44 mL (2×) and 0.37 mL and 0.38 mL and 0.59 mL and 0.4 mL (2×) and 0.45 mL and 0.41 mL.

**Q.** And the Hind paw volume ([3]; day 12 of study, group mean, n 10)?
**A.** The Hind paw volume was 0.44 mL.

**Q.** What about the Hind paw volume ([3]; day 12 of study, individual animal) of the same substance?
**A.** Its Hind paw volume is 0.58 mL and 0.44 mL and 0.35 mL and 0.42 mL and 0.46 mL and 0.49 mL and 0.45 mL and 0.39 mL (2×) and 0.4 mL.

**Q.** What about the Hind paw volume ([3]; day 13 of study, group mean, n 10) of the same substance?
**A.** The Hind paw volume was 0.42 mL.

**Q.** What about the Hind paw volume ([3]; day 13 of study, individual animal) of the same substance?
**A.** The Hind paw volume was 0.58 mL and 0.41 mL (2×) and 0.36 mL and 0.33 mL and 0.49 mL and 0.39 mL and 0.35 mL and 0.43 mL and 0.4 mL.

**Q.** What about the Hind paw volume ([3]; day 16 of study, group mean, n 10) of the same substance?
**A.** The Hind paw volume was 0.38 mL.

**Q.** What about the Hind paw volume ([3]; day 16 of study, individual animal) of the same substance?
**A.** The Hind paw volume was 0.45 mL and 0.46 mL and 0.34 mL and 0.37 mL and 0.43 mL and 0.41 mL and 0.33 mL (2×) and 0.32 mL and 0.3 mL.

**Q.** What about the Hind paw volume ([3]; day 19 of study, group mean, n 10) of the same substance?
**A.** The Hind paw volume was 0.42 mL.

**Q.** What about the Hind paw volume ([3]; day 19 of study, individual animal) of the same substance?
**A.** The Hind paw volume was 0.61 mL and 0.43 mL and 0.4 mL and 0.47 mL (2×) and 0.32 mL and 0.42 mL and 0.35 mL and 0.33 mL and 0.36 mL.

**Q.** And the Hind paw volume ([3]; day 22 of study, group mean, n 10)?
**A.** The Hind paw volume was 0.38 mL.

**Q.** What about the Hind paw volume ([3]; day 22 of study, individual animal) of the same substance?
**A.** The Hind paw volume was 0.55 mL and 0.41 mL (2×) and 0.34 mL (2×) and 0.39 mL and 0.36 mL (3×) and 0.32 mL.

**Q.** And the “% Disease Suppression” value ([3]; group mean, n 10)?
**A.** The value was 61.66%.

**Q.** What about the “Total Disease Burden (AUC)” value ([3]; group mean, n 10) of the same substance?
**A.** Its value is 0.74.

**Q.** And the “% Disease Suppression” value ([3]; individual animal)?
**A.** Its value is 16.3% and 74.3% and 109.8% and 81.9% and 52.3% and 49.7% and 69.4% and 70.2% and 29.0% and 63.7%.

**Q.** And the “Total Disease Burden (AUC)” value ([3]; individual animal)?
**A.** Its value is 1.62 and 0.58 (2×) and −0.19 and 0.35 and 0.92 and 0.97 and 0.59 and 1.37 and 0.70.

**Q.** What about the “Maximum Δ Mean Volume” value ([3]; difference between mean combined foot pad volumes on day 8 and on median day of maximal swelling, vehicle 0.21) of the same substance?
**A.** Its value is 0.13** ml.

**Q.** And the “Mean Disease Burden” value ([3]; group mean AUC of combined footpad volume over baseline, days 8 to 22, vehicle 1.93)?
**A.** Its value is 0.74**.

**Q.** What about the “% Disease Suppression (vs Vehicle)” value ([3]; percent decrease in total disease burden relative to vehicle) of the same substance?
**A.** Its value is 61.7%.

**Q.** And the “Score From H & E: Bone Resorption” value [4]?
**A.** Its value is 0.

**Q.** And the “Score From H & E: Cartilage Damage” value [4]?
**A.** The value was 0.

**Q.** And the “Score From H & E: Pannus” value [4]?
**A.** The value was 2 (3×) and 0 (5×).

**Q.** What about the “Score From H & E: Periosteal/Exostotic Changes” value [4] of the same substance?
**A.** Its value is 0.

**Q.** What about the “Score From H & E: Cartilage Damage” value [5] of the same substance?
**A.** The value was 1 (3×) and 2 (2×).

**Q.** What about the “Score From H & E: Bone Resorption” value [6] of the same substance?
**A.** Its value is 1 and 3 (3×).

**Q.** And the “Score From H & E: Periosteal/Exostotic Changes” value [6]?
**A.** The value was 4 (2×) and 3 (2×).

**Q.** And the “Clinical Score, Difference in rank sum” value [7, 9]?
**A.** The value was 3.55.

**Q.** What about the “Clinical Score, Summary (significance)” value [7, 9] of the same substance?
**A.** The value was “ns”.

**Q.** And the “Max Clin Score, Mean” value ([7]; group mean, n=10)?
**A.** The value was 39.60.

**Q.** And the “Clinical Score, Day of Study 8, Mean” value ([7]; group mean, n=10, day 8 (start of dosing))?
**A.** The value was 5.50.

**Q.** What about the “Clinical Score, Day of Study 11, Mean” value ([7]; group mean, n=10, day 11) of the same substance?
**A.** Its value is 19.60.

**Q.** What about the “Clinical Score, Day of Study 12, Mean” value ([7]; group mean, n=10, day 12) of the same substance?
**A.** The value was 37.10.

**Q.** And the “Clinical Score, Day of Study 13, Mean” value ([7]; group mean, n=10, day 13)?
**A.** Its value is 35.50.

**Q.** And the “Clinical Score, Day of Study 16, Mean” value ([7]; group mean, n=10, day 16 (Jul. 1, 2011))?
**A.** The value was 31.50.

**Q.** And the “Clinical Score, Day of Study 19, Mean” value ([7]; group mean, n=10, day 19)?
**A.** The value was 28.40.

**Q.** And the “Clinical Score, Day of Study 22, Mean” value ([7]; group mean, n=10, day 22 (endpoint))?
**A.** Its value is 25.70.

**Q.** And the “Day (of Max Clin Score)” value ([7]; individual animal, day of study)?
**A.** The value was 12 (8×) and 22 and 16.

**Q.** And the “Max Clin Score” value ([7]; individual animal, maximum over days 8 to 22)?
**A.** Its value is 32 and 50 (2×) and 45 and 46 and 35 and 30 and 20 and 34 and 52.

**Q.** And the “Clinical Score, Day of Study 8” value ([7]; individual animal, score 0-60, day 8 (start of dosing))?
**A.** The value was 0 (5×) and 15 and 10 (4×).

**Q.** What about the “Clinical Score, Day of Study 11” value ([7]; individual animal, score 0-60, day 11) of the same substance?
**A.** The value was 12 (2×) and 34 and 28 and 4 and 15 and 43 and 11 and 10 and 27.

**Q.** And the “Clinical Score, Day of Study 12” value ([7]; individual animal, score 0-60, day 12)?
**A.** The value was 32 and 50 (2×) and 45 and 27 and 35 and 26 and 20 and 34 and 52.

**Q.** What about the “Clinical Score, Day of Study 13” value ([7]; individual animal, score 0-60, day 13) of the same substance?
**A.** Its value is 32 and 50 and 45 (2×) and 21 and 35 and 30 and 15 and 34 and 48.

**Q.** And the “Clinical Score, Day of Study 16” value ([7]; individual animal, score 0-60, day 16 (Jul. 1, 2011))?
**A.** Its value is 32 and 49 and 21 and 48 and 25 and 45 and 15 and 10 and 24 and 46.

**Q.** And the “Clinical Score, Day of Study 19” value ([7]; individual animal, score 0-60, day 19)?
**A.** Its value is 32 and 48 and 34 and 25 and 5 and 45 and 20 and 10 and 26 and 37.

**Q.** And the “Clinical Score, Day of Study 22” value ([7]; individual animal, score 0-60, day 22 (endpoint))?
**A.** The value was 32 and 41 and 34 and 16 (2×) and 40 and 19 and 10 and 23 and 26.

**Q.** What about the “Day (of Max Clin Score), Mean” value ([7]; listed as 'Mean', n=10, day of study) of the same substance?
**A.** The value was 12.00.

**Q.** What about the “Mean Maximum Clinical Score” value ([7]; scored from 0 to 60 (15/limb), sum of 4 limbs, vehicle 45.4) of the same substance?
**A.** Its value is 39.6^ns.
